# Laboratory results published in US8841269B2, “Polynucleotides for use in treating and diagnosing cancers” (Creighton University, priority 2010, dated 2014).
# “Also recorded” adds a separate entry of the source.
# Assays:
# [1] = system: 3′ UTR of human ER-α gene; assay: Luciferase reporter assay, ER-α 3′ UTR let-7 binding site in pMIR-REPORT; format: cell-based; details: MCF7 cells
# Text: Luciferase assay. A fragment of the 3′ UTR of human ER-α gene, which contains the putative let-7 target sites, was synthesized (IDT technology). With attached SpeI and HindIII restriction sites, the fragments are 48 by long. The sense strand was 5′-[…] (SEQ ID NO:39) while the antisense strand was 5′-[…] (SEQ ID NO:40). The cloning and transfection followed previous protocol (Hu et al., 2009, J Immunol 183:1617-24). Sixty nanomolar let-7 mimics, anti-let-7 inhibitors, pre-miR negative control #1 (AM17110, Ambion), or anti-miR negative control #1 (AM17010, Ambion) were transfected together with a 0.25 μg luciferase construct and a 0.25 μg β-galactosidase plasmid, which were used as a normalization reference. After 24 hour post-transfection, the luciferase activity was measured in a Veritas Microplate Luminometer (Turner Biosystems). Every treatment had 3 replicates. The luciferase activity was expressed as a fraction of negative control.
# ER-α = assay: Immunoblot of ER-α after transfection in MCF7; format: cell-based, human; details: MCF7, mimics 60 nmol/L
# Text: (§1) Immunoblot analysis. For Western blot in FFPE tissues, an established method was followed (Addis et al., 2009, Proteomics 9:3815-23). For MCF7 cell line, let-7 mimics and negative control miRNA (60 nmol/L), or let-7 inhibitors and anti-miR negative control (60 nmol/L) were transfected following the protocol of siPORT NeoFX Transfection Agent (Applied Biosystems), The Western blot procedure was described before (Zhang et al., 2010, J Proteome Res., 9(2):980-989). Antibody information is as follows: ER-α, RB-9016-P1, Thermoscientific; Cyclin D1, sc-8396, Santa Cruz; pS2, ab80782 was Abeam; β-Actin, sc-69879, Santa Cruz.
# ER-α mRNA = assay: Real-time PCR of ER-α mRNA after transfection in MCF7; format: cell-based, human; details: MCF7, mimics, after 6 days
# Procedure: For real-time PCR on the expression of ER-α, total RNA was extracted using Trizol reagent (Invitrogen). One microgram RNA was used for cDNA synthesis following the protocol of SuperScript III First-Strand Synthesis System (Invitrogen). After 10 times dilution, 4 μL cDNA was used in a 20 μL reaction volume, which included 4 μL of 1.5 μM primers, 2 μL of 2 μM probes, and 10 μL master mix (Applied Biosystems). β-actin was the internal control. The oligos for ER-α are: forward primer, 5′-GCGGCCACGGACCAT (SEQ ID NO:17); reverse primer, 5′-[…] (SEQ ID NO:18); probe, 5′-FAM-[…]-TAMRA (SEQ ID NO:19).
# (§2) For FFPE tissues, there was the same repeat number as in microarray; for cell lines, there were three biological repeats. Each sample had three technical repeats on the PCR plate. Real-time PCR was performed on an Applied Biosystems 7900HT real-time PCR instrument. PCR was initiated by two holds of 52° C. 2 min and 94° C. 10 min each, followed by 40 cycles of 15 s at 95° C. and 1 min at 60° C.
# [2] = Real-time PCR quantification of mature let-7 after mimic transfection in MCF7; format: cell-based, human; details: MCF7, relative quantity against RNU48
# Procedure: Quantitative real-time PCR. For miRNA quantification in FFPE tissues, total RNA was extracted as described above; for miRNA quantification in cell lines, total RNA was isolated using mirVana miRNA Isolation Kit (Ambion Inc.). cDNA was synthesized by using 100 ng total RNA in a reaction volume of 15 μL, by following the protocol of Taqman miRNA Reverse Transcription Kit (Applied Biosystems). After 15 times dilution, 9 μL cDNA was used for real-time PCR in a 20 μL reaction volume, including 10 μL of master mix and 1 μL Taqman probe (Applied Biosystems). This reaction system only detects mature miRNAs not pre-miRNAs. The level of each miRNA was expressed following the 2^−ΔΔCt or […] method using the small nuclear RNA, RNU48, as the internal reference.
# as §2
# cyclin D1 = assay: Immunoblot of cyclin D1 after transfection in MCF7; format: cell-based, human; details: MCF7, mimics
# Text: as §1
# pS2 = assay: Immunoblot of pS2 after transfection in MCF7; format: cell-based, human; details: MCF7, mimics
# Text: as §1
# [3] = system: estrogen response element (ERE) construct; assay: ERE luciferase assay (2 ERE-tk-Luc), genomic estrogen pathway in MCF7; format: cell-based, human
# Procedure: For checking on the genomic estrogen pathway, 10^5 MCF7 cells were first seeded into each well on a 24-well plate and cultured in IMEM with 2.5% charcoal-stripped FBS for 2 days. Then the cells were transfected as described above except that the estrogen response element (ERE) construct (2 ERE-tk-Luc; obtained from Katarine Pettersson, Karolinska Institute, Stockholm) replaced the pMIR-REPORT plasmid for 1 day. After stimulation with 10 nmol/L E2 for 12 hours, luciferase activity was measured as described above.
# MCF7 cells [4] = assay: MTT cell proliferation assay in MCF7; format: cell-based, human
# Procedure: (§3) MTT cell proliferation assay. MCF7 cells were transfected with let-7 mimics or negative controls (60 nmol/L) in normal growth medium for 1 day, or in medium with 2.5% charcoal-stripped FBS for 2 days to exhaust endogenous estrogen, following the protocol of siPORT NeoFX Transfection Agent (Applied Biosystems). For the experiment in normal growth medium, 10^4 cells in the volume of 100 μL were seeded in a 96-well plate for 12 hours and assay lasted for another 4 days. For experiments in E2 free medium, 1.5 10^4 cells were seeded in a 96-well plate for 12 hours and then exposed to 10 nmol/L E2, or not, for up to 4 days. For both experiments, each treatment had 12 replicates on the plate. The cells were then incubated in 0.83 mg/mL 3-[4,5-dimethylthiazol-2-yl]-2,5-diphenyltetrazolium bromide (MTT) in growth medium at 37° C. for 4 h and lysed in 100 μL of DMSO at room temperature for 15 min. The absorbance in each well was measured at 490 nm by an ELx800 Absorbance Microplate Reader (Biotek). Cell proliferation was normalized to day 0.
# [5] = system: ER-α negative MDA-MB-231 cell line; assay: MTT cell proliferation assay in MDA-MB-231; format: cell-based, human; details: MDA-MB-231, DMEM with 10% FBS
# Procedure: FIG. 10. The effects of let-7a, let-7b, and let-7i miRNAs on cell proliferation in ER-α negative MDA-MB-231 cell line. Cancer cell proliferation was monitored by MTT assays in the same way as in MCF7 cell line except MDA-MB-231 cells were grown in DMEM with 10% FBS.
# as §3
# MCF7 cells [6] = assay: Annexin-V binding assay for apoptosis in MCF7; format: cell-based, human; details: MCF7, after either 3 days or 6 days
# Procedure: Annexin-V binding assay for apoptosis. […] The staining followed the protocol of FITC Annexin V Apoptosis Detection Kit I (Cat #556547, BD Biosciences). Cell populations were analyzed with a BD FACSAria™ flow cytometer. Approximately 20,000 cells were counted for each sample.
substance,measurement,setting,value
"let-7a: let-7a miRNA (mimic), 3′-UUGAUAUGUUGGAUGAUGGAGU-5′ (SEQ ID NO:7) (chemistry not given here; listed 3' to 5')","luciferase activity, ER-α binding site in 3′UTR of luciferase","[1]; 60 nmol/L mimics, vs negative control miRNA",decreased the luciferase activity; also recorded: significantly inhibited the luciferase activity
same,"luciferase activity, mutated ER-α binding sequence",[1]; mutated sequence in 3′UTR of luciferase,abrogated the effects; also recorded: did not show inhibition
same,expression of ER-α (protein),ER-α; after 2 days,significantly depressed the expression of ER-α
same,expression of ER-α (protein),ER-α; after 6 days,modest effect
same,ER-α mRNA expression,ER-α mRNA,relieved
same,rank of forced expression throughout the time course,[2],lowest expression
same,expression of cyclin D1 (protein),cyclin D1; after 2 days,significantly inhibited
same,protein expression of cyclin D1,cyclin D1; after 6 days,affected neither
same,expression of pS2 (protein),pS2; after 2 days,significantly inhibited
same,protein expression of pS2,pS2; after 6 days,affected neither
same,ERE luciferase activity,"[3]; MCF7, p2 ERE-tk-Luc, 10 nmol/L E2 12 hours, p<0.01",about 60 % of negative control
same,luciferase activity of the ERE construct,[3]; MCF7 cell line,inhibit the luciferase activity of the ERE construct
same,cell growth (MTT) with E2,"MCF7 cells [4]; MCF7, E2 free medium with addition of 10 nmol/L E2",least inhibition
same,cell growth (MTT),"MCF7 cells [4]; MCF7, E2 free medium with or without addition of 10 nmol/L E2 (FIG. 9B-D)",slightly inhibited
same,cell proliferation (MTT),"MCF7 cells [4]; MCF7, normal growth medium, 60 nmol/L",did not show a significant effect
same,cell growth (MTT),[5],None of three miRNAs significantly inhibited cell growth
same,effect on apoptosis,MCF7 cells [6],not significant
